From BindingDB's records for doi:10.1111/j.1747-0285.2007.00608.x (National Institute of Pharmaceutical Education and Research, 2008) come the findings set out here.

pIC50: −log10 of the molar value.

For this assay, the target named is T1, UDP-3-O-acyl-N-acetylglucosamine deacetylase (Pseudomonas aeruginosa (strain ATCC 15692 / DSM 22644 / CIP 104116 / JCM 14847 / LMG 12228 / 1C / PRS 101 / PAO1), UniProt P47205).
T1 sequence (P47205 whole entry): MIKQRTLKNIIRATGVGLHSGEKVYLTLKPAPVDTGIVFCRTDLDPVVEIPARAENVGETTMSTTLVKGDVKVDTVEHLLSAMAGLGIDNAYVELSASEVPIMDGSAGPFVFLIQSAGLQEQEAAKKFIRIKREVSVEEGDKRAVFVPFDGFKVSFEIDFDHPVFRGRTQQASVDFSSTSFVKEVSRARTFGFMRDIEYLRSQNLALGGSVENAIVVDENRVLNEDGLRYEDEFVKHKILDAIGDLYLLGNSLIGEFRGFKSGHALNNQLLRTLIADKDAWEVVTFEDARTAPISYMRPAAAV
The assay is described as follows: Inhibition Assay. An excerpt: The LpxC inhibitors were used as the reference for development of flexible alignment-based pharamcophore, pharamcophore mapping study.
With `O=C(NO)[C@H]1COC(c2n[nH]c3ccccc23)=N1` [LpxC Inhibitor, L9], the pIC50 was 5.26.
With `O=C(NO)[C@H]1COC(c2cc(F)cc(C(F)(F)F)c2)=N1` [LpxC Inhibitor, L7] the figure was 4.60; with `O=C(NO)[C@H]1COC(c2ccc(OCc3cccc(F)c3)c(C(F)(F)F)c2)=N1` [LpxC Inhibitor, L6], 6.60.
The compound `CCCc1cc(C(=O)N[C@@H](CO)C(=O)NO)cc(OC(C)(C)C)c1OC` [LpxC Inhibitor, L13] gave a pIC50 of less than 4.30.
For the compound `Cc1cc(C2=N[C@@H](C(=O)NO)CO2)ccc1F` [LpxC Inhibitor, L3], the pIC50 was 5.92.
With `CCOc1cc(C2=N[C@@H](C(=O)NO)CO2)ccc1F` [LpxC Inhibitor, L10] the figure was 6.00; with `C=CCOc1ccc(C2=N[C@@H](C(=O)NO)CO2)cc1C(F)(F)F` [LpxC Inhibitor, L4], 5.66; with `O=C(NO)[C@@H]1COC(c2ccc(O)cc2)=N1` [LpxC Inhibitor, L17], less than 4.52.
With `O=C(N[C@@H](CO)C(=O)NO)c1n[nH]c2ccccc12` [LpxC Inhibitor, L5] the figure was 4.89; with `O=C(NO)[C@H]1COC(c2ccc(COc3cccc([N+](=O)[O-])c3)cc2)=N1` [LpxC Inhibitor, L2], 6.25.
Take `CCCc1cc(C2=N[C@H](C(=O)NO)CS2)cc(OC(F)(F)F)c1OC` [LpxC Inhibitor, L14]: the pIC50 is 4.75.
Consider `O=C(NO)[C@@H]1COC(c2ccc(OCc3cccc([N+](=O)[O-])c3)cc2)=N1` [LpxC Inhibitor, L16], for which the pIC50 was 6.00.
With `CN(C)c1ccc(C2=N[C@@H](C(=O)NO)CO2)cc1` [CS273] the figure was 5.31.
With `COc1ccc(C2=N[C@H](C(=O)NO)CO2)cc1OC(F)(F)F` [LpxC Inhibitor, L15] the figure was 6.80; with `CCCc1cc(C2=N[C@@H](C(=O)NO)CO2)cc(OC(F)(F)F)c1OC` [LpxC Inhibitor, L1], 6.30.
With `CCCCn1nc(C2=N[C@@H](C(=O)NO)CO2)c2ccccc21` [LpxC Inhibitor, L11] the figure was 5.00; with `Cc1ccc(C2=N[C@H](C(=O)NO)CS2)cc1` [LpxC Inhibitor, L18], 4.41.
With `CCCCn1nc2ccccc2c1C1=N[C@@H](C(=O)NO)CO1` [LpxC Inhibitor, L12], the pIC50 was 4.92.
